Data: publication PMC6934184, “Selective DNA-PKcs inhibition extends the therapeutic index of localized radiotherapy and chemotherapy” (The Journal of Clinical Investigation, 2019)

Biological target: T1, MAP3K2 (MEKK2) (Homo sapiens, UniProt Q9Y2U5)
T1 construct: purchased Thermo Fisher Scientific (Life Technologies) SelectScreen
Assay: SelectScreen LanthaScreen
Format: binding
Conditions: read-out: % displacement
Method in brief: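 Percent values come from Thermo SelectScreen profiling of NU5455, combining activity and binding assays. CSF1R was run in Z'LYTE format at Km app ATP, and CAMK1 in Adapta format with ATP listed at 10.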

T1 sequence (Q9Y2U5 whole entry): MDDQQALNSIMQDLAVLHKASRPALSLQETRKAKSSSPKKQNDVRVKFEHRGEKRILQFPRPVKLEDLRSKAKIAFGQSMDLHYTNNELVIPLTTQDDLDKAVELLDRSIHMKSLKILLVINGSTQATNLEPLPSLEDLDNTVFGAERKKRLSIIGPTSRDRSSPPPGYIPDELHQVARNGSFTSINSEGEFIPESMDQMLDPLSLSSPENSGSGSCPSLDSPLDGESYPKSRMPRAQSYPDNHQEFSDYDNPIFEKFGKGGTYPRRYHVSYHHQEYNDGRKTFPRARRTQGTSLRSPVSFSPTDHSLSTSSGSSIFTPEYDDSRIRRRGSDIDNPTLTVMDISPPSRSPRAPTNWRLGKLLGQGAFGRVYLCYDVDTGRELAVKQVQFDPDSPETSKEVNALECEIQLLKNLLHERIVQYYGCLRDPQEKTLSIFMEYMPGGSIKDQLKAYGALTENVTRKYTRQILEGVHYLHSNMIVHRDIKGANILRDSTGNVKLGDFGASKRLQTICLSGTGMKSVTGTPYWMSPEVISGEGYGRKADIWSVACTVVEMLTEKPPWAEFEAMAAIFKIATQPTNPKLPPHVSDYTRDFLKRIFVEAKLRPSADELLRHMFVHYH

Compound: CN(C(=O)CN1CCOCC1)c1ccc2sc3c(-c4cccc5c(=O)cc(N6CC7CCC(C6)O7)oc45)cccc3c2c1 [NU5455]
- inhibition at 1 µM: 0.1%
